Reference: patent US9586986B2, “Substituted 7-deazapurine ribonucleosides for therapeutic uses” (Institute of Organic Chemistry and Biochemistry ASCR, v.v.i., priority 2014, dated 2017)

Tests used:
[1] = test system: K562-TAX; assay: Cytostatic/cytotoxic MTT assay, K562-TAX; assay type: cell-based; conditions: Homo sapiens, paclitaxel resistant subline, 72 h, read-out: MTT, IC50 K562-TAX
Source text: Unless otherwise stated, all cells were purchased from the […] (ATCC). The CCRF-CEM line is derived from T lymphoblastic leukemia, evincing high chemosenzitivity, K562 represent cells from a […] patient sample with bcr-abl translocation, HCT116 is colorectal tumor cell line and its p53 gene knock-down counterpart (HCT116p53−/−, Horizon Discovery, UK) is a model of human cancers with p53 inactivation frequently associated with poor prognosis, A549 cell line is lung adenocarcinoma. The daunorubicin resistant subline of CCRF-CEM cells (CEM-DNR bulk) and paclitaxel resistant subline K562-TAX were selected in our laboratory by cultivation of maternal cell lines in increasing concentrations of daunorubicine or paclitaxel, respectively. The CEM-DNR cells overexpress mrp-1 and mdr-1 genes, while K562-TAX cells overexpress mdr-1 only. Both proteins belong to the family of ABC transporters and are involved in the primary and/or acquired multidrug resistance phenomenon (ref.: Gottesman, M. M.; Fojo, T.; Bates, S. E. Multidrug resistance in cancer: role of ATP-dependent transporters. Nat. Rev. Cancer. 2002, 2, 48-58. (b) Noskova, V.; Dzubak, P.; Kuzmina, G.; Ludkova, A.; Stehlik, D.; Trojanec, R.; Janostakova, A.; Korinkova, G.; Mihal, V.; Hajduch, M. In vitro chemoresistance profile and expression/function of MDR associated proteins in resistant cell lines derived from CCRF-CEM, K562, A549 and MDA MB 231 parental cells. Neoplasma 2002, 49, 418-425). Non-malignant MRC-5 and BJ cells, derived from normal human fibroblasts, were used as controls. The cells were maintained in Nunc/Corning 80 cm^2 plastic tissue culture flasks and cultured in cell culture medium (DMEM/RPMI 1640 with 5 g/L glucose, 2 mM glutamine, 100 U/mL penicillin, 100 µg/mL streptomycin, 10% fetal calf serum, and NaHCO3). Cell suspensions were prepared and diluted according to the particular cell type and the expected target cell density (25,000-30,000 cells/well based on cell growth characteristics). Cells were added by pipette (80 L) into 96-well microtiter plates. Inoculates were allowed a pre-incubation period of 24 h at 37° C. and 5% CO2 for stabilization. Four-fold dilutions, in 20-L aliquots, of the intended test concentration were added to the microtiter plate walls at time zero. All test compound concentrations were examined in duplicate. Incubation of the cells with the test compounds lasted for 72 h at 37° C., in a 5% CO2 atmosphere at 100% humidity. At the end of the incubation period, the cells were assayed using MTT. Aliquots (10 L) of the MTT stock solution (5 mg/ml) were pipetted into each well and incubated for another 1-4 h. After this incubation period the formazan produced was dissolved by addition of 100 µL/well of 10% aq SDS (pH 5.5), followed by a further incubation at 37° C. overnight. The optical density was measured at 540 nm. The IC50 value, the drug concentration inhibiting the cell growth by 50%, was calculated from appropriate dose-response curves.
In vitro cytotoxic/cytostatic activity final nucleosides 1-5 was initially evaluated against […] cell lines derived from human solid tumors including lung (A549 cells) and colon (HCT116 and HCT116p53−/−) carcinomas, as well as leukemia cell lines (CCRF-CEM, CEM-DNR, K562 and K562-TAX) and, for comparison, non-malignant BJ and MRC-5 fibroblasts. Concentrations inhibiting the cell growth by 50% (IC50) were determined using a quantitative metabolic staining with 3-(4,5-dimethylthiazol-2-yl)-2,5-diphenyltetrazolium bromide (MTT) (ref.: Denizot, F.; Lang, R. Rapid colorimetric assay for cell growth and survival: Modifications to the tetrazolium dye procedure giving improved sensitivity and reliability. J. Immunol. Meth. 1986, 89, 271-277) following a 3-day treatment.
Multidrug resistance is a major therapeutic problem in cancer chemotherapy. […]

[2] = test system: CCRF-CEM cells; assay: Cell cycle and apoptosis analysis (flow cytometry, propidium iodide); assay type: cell-based, human; conditions: for G1, % of total cell populations / G2/M, % of total cell populations / S, % of total cell populations / sub-G1 (apoptosis), % of total cell populations: CCRF-CEM cells treated at IC50 for 24 hrs
Protocol: (§1) After the incubation period, cells were then washed with cold 1×PBS and fixed in 70% ethanol added dropwise and stored overnight at −20° C. Afterwards, cells were washed in hypotonic citrate buffer, treated with RNase (50 μg/mL) and stained with propidium iodide. Flow cytometry using a 488 nm single-beam laser (Becton Dickinson) was used for measurement. The data were analyzed according to the program ModFitLT (Verity), and apoptosis was expressed as the percentage of cells with a propidium content lower than that in the G0/G1 population. Half of the sample was used for pH3^ser10 antibody (Sigma) labeling and subsequent flow cytometry analysis of mitotic cells.
(§2) However, the major mechanism of action was inhibition of RNA synthesis (BrU incorporation). […] Cell cycle alterations (G1, S, G2/M) were not observed in treated cells under specified experimental conditions.

[3] = test system: CCRF-CEM cells; assay: Mitotic cells, pH3Ser10 antibody labeling (flow cytometry); assay type: cell-based, human; conditions: CCRF-CEM cells treated at IC50 for 24 hrs
Protocol: as §1, §2

[4] = test system: CCRF-CEM cells; assay: BrdU incorporation analysis (DNA synthesis); assay type: cell-based, human; conditions: for BrdU+ (DNA synthesis), % of total cell populations: CCRF-CEM cells treated at IC50 for 24 hrs; for DNA synthesis inhibition in words: CCRF-CEM, IC50, 24 hours
Protocol: Cells were cultured as for cell cycle analysis. Before harvesting, they were pulse-labelled with 10 M 5-bromo-2′-deoxyuridine (BrdU) for 30 min. The cells were trypsinized, fixed with ice-cold 70% ethanol, incubated on ice for 30 min, washed with PBS, and resuspended in 2 M HCl for 30 min at room temperature to denature their DNA. Following neutralization with 0.1 M Na2B4O7, the cells were washed with PBS containing 0.5% Tween-20 and 1% BSA. They were then stained with primary anti-BrdU antibody (Exbio) for 30 min at room temperature in the dark. Cells were than washed with PBS and stained with secondary anti-mouse-FITC antibody (Sigma). The cells were then washed with PBS, incubated with propidium iodide (0.1 mg/mL) and RNAse A (0.5 mg/mL) for 1 h at room temperature in the dark, and finally analyzed by flow cytometry using a 488 nm single-beam laser (FACSCalibur, Becton Dickinson).
as §2

[5] = test system: CCRF-CEM cells; assay: BrU incorporation analysis (RNA synthesis); assay type: cell-based, human; conditions: CCRF-CEM cells treated at IC50 for 24 hrs
Protocol: Cells were cultured and treated as for cell cycle analysis. Before harvesting, they were pulse-labelled with 1 mM 5-bromouridine (BrU) for 30 min. The cells were fixed in 1% buffered paraformaldehyde with 0.05% of NP-40, incubated in room temperature for 15 min and than in the fridge overnight. They were then washed in 1% glycin in PBS, washed in PBS and stained with primary anti-BrdU antibody crossreacting to BrU (Exbio) for 30 min at room temperature in the dark. Cells were than washed with PBS and stained with secondary anti-mouse-FITC antibody (Sigma). Following the staining the cells are washed with PBS and fixed with 1% PBS buffered paraformaldehyde with 0.05% of NP-40. The cells were then washed with PBS, incubated with propidium iodide (0.1 mg/mL) and RNAse A (0.5 mg/mL) for 1 h at room temperature in the dark, and finally analyzed by flow cytometry using a 488 nm single-beam laser (FACSCalibur, Becton Dickinson).
as §2

| Structure (SMILES) | IC50 [1] | G1, % of total cell populations [2] | G2/M, % of total cell populations [2] | S, % of total cell populations [2] | sub-G1 (apoptosis), % of total cell populations [2] | pH3Ser10+ (mitosis), % of total cell populations [3] | BrdU+ (DNA synthesis), % of total cell populations [4] | BrU+ (RNA synthesis), % of total cell populations [5] | apoptosis induction in words ([2]; CCRF-CEM, IC50, 24 hours) | melting point | DNA synthesis inhibition in words [4] |
| --- | --- | --- | --- | --- | --- | --- | --- | --- | --- | --- | --- |
| CNc1ncnc2c1c(-c1ccco1)cn2[C@@H]1O[C@H](CO)[C@@H](O)[C@H]1O [Compound 3a, 5-(Furan-2-yl)-4-methylamino-7-(β-D-ribofuranosyl)-7H-pyrrolo[2,3-d]pyrimidine] | 15.1 µM | 42.2% | 12.1% | 45.8% | 10.6% | 1.4% | 47.2% | 1. % | – | – | – |
| COc1ncnc2c1c(-c1ccsc1)cn2[C@@H]1O[C@H](CO)[C@@H](O)[C@H]1O [Compound 1d, 4-Methoxy-7-(β-D-ribofuranosyl)-5-(thiophen-3-yl)-7H-pyrrolo[2,3-d]pyrimidine] | 3.45 µM | 40.8% | 12.7% | 46.5% | 75% | 2.9% | 44.4% | 0.5% | major apoptosis | 169 to 171 °C | – |
| CN(C)c1ncnc2c1c(-c1ccsc1)cn2[C@@H]1O[C@H](CO)[C@@H](O)[C@H]1O [Compound 4d, 4-Dimethylamino-7-(β-D-ribofuranosyl)-5-(thiophen-3-yl)-7H-pyrrolo[2,3-d]pyrimidine] | > 20 µM | 41.4% | 11.2% | 47.4% | 6.8% | 0.7% | 36.1% | 0.7% | – | – | barely inhibited |
| CSc1ncnc2c1c(-c1ccco1)cn2[C@@H]1O[C@H](CO)[C@@H](O)[C@H]1O [Compound 2a, 5-(Furan-2-yl)-4-methylsulfanyl-7-(β-D-ribofuranosyl)-7H-pyrrolo[2,3-d]pyrimidine] | 0.21 µM | 43.5% | 11.3% | 45.3% | 7.9% | 0.7% | 29.5% | 5% | – | – | barely inhibited |
| COc1ncnc2c1c(-c1ccco1)cn2[C@@H]1O[C@H](CO)[C@@H](O)[C@H]1O [Compound 1a, 5-(Furan-2-yl)-4-methoxy-7-(β-D-ribofuranosyl)-7H-pyrrolo[2,3-d]pyrimidine] | 0.38 µM | 42.8% | 12.9% | 44.3% | 6.8% | 1.4% | 45.3% | 13.8% | – | – | – |
| COc1ncnc2c1c(I)cn2[C@@H]1O[C@H](CO)[C@@H](O)[C@H]1O [Compound 1h, 5-iodo-4-methoxy-7-(β-D-ribofuranosyl)-7H-pyrrolo[2,3-d]pyrimidine, reference compound] | 14.8 µM | 37.9% | 12.9% | 49.2% | 6% | 0.9% | 38.9% | 0.2% | – | – | barely inhibited |
| C#Cc1cn([C@@H]2O[C@H](CO)[C@@H](O)[C@H]2O)c2ncnc(N(C)C)c12 [Compound 4g, 4-Dimethylamino-5-ethynyl-7-(β-D-ribofuranosyl)-7H-pyrrolo[2,3-d]pyrimidine] | 0.26 µM | 38.5% | 14.7% | 46.8% | 8.9% | 1.3% | 43.4% | 8.6% | – | – | – |
| CNc1ncnc2c1c(-c1cccs1)cn2[C@@H]1O[C@H](CO)[C@@H](O)[C@H]1O [Compound 3c, 4-Methylamino-7-(β-D-ribofuranosyl)-5-(thiophen-2-yl)-7H-pyrrolo[2,3-d]pyrimidine] | > 20 µM | – | – | – | – | – | – | – | – | 183 to 185 °C | – |
| CN(C)c1ncnc2c1c(-c1ccco1)cn2[C@@H]1O[C@H](CO)[C@@H](O)[C@H]1O [Compound 4a, 4-Dimethylamino-5-(furan-2-yl)-7-(β-D-ribofuranosyl)-7H-pyrrolo[2,3-d]pyrimidine] | 1.28 µM | 31% | 15.4% | 53.6% | 10.2% | 1.5% | 50.6% | 0.4% | – | – | – |
| CNc1ncnc2c1c(-c1cc3ccccc3o1)cn2[C@@H]1O[C@H](CO)[C@@H](O)[C@H]1O [Compound 3f, 5-(Benzofuran-2-yl)-4-methylamino-7-(β-D-ribofuranosyl)-7H-pyrrolo[2,3-d]pyrimidine] | > 20 µM | – | – | – | – | – | – | – | – | 203 to 206 °C | – |
